Marks after values point to notes of the source that are not given here.
What was measured:
[1] = Stability: HPLC assay before and after drying over phosphorus pentoxide for 1 week; assay type: physicochemical; settings: dry
Method: An assay of TRI 50c and its sodium and lysine salts before and after drying.
For sample analysis, 5 mg of dried and non-dried material was weighed in a 5 mL volumetric flask and dissolved in 1 mL acetonitrile and filled up with demineralised water to 5 mL.
The quantitative evaluation was performed using an HPLC-PDA method.

healthy male subjects = assay: Intravenous administration into humans (randomised double blind placebo study); assay type: in vivo; settings: intravenous infusion
Method: The test consisted of three groups, each of six males. From each group 5 men were given the active ingredient and 1 was given a placebo.
Total I.V. administered doses were: • 82 mg (7 mg intravenous bolus (over 30 s) followed by an infusion of 25 mg/h for 3 hours). • 130 mg (10 mg intravenous bolus (over 30 s) followed by an infusion of 40 mg/h for 3 hours). • 120 mg (by infusion of 40 mg/h for 3 hours).

[2] = test system: dogs undergoing hypothermic CPB; assay: Simulated mitral valve repair in dogs undergoing hypothermic CPB; assay type: in vivo, beagle dogs; settings: intravenous, dogs on CPB
Method: Following a dose ranging study in conscious dogs, six beagle dogs were placed on CPB and underwent a simulated mitral valve repair. A range of dynamic coagulation markers were measured, including thrombin clotting time (TT), activated partial thromboplastin time (APTT), activated clotting time (ACT), ecarin clotting time (ECT), whole blood thrombin clotting time, platelet counts and function tests. In addition, pre and post-operative echocardiograms and intra-operative blood loss were evaluated. […] By virtue of its predictable anticoagulant efficacy and controlled duration of action, TGN 255 offers potential in on pump and off pump coronary bypass procedures.

beagle dogs = assay: Intravenous administration in beagle dogs, PK/PD (thrombin time, APTT); assay type: in vivo; settings: 1.0 mg/kg i.v.
Method: Plasma concentrations were measured using an LCMS/MS method.
Blood samples were taken into 3.8% tri-sodium citrate (1+8) at pre dose, 2, 5, 10, 20, 30, minutes post dose and then at 1, 2, 3, 4, 6, 8, 12 and 24 hours post dose. Plasma was prepared by centrifugation and frozen at minus 20° C. pending analysis.

[3] = Maximum solution concentration with and without pH control; assay type: physicochemical
[4] = Comparative storage stability of sodium and calcium salts (Example 42); assay type: physicochemical; settings: for Tri50c (w/w %, LOD corr.): corrected for loss on drying
Source text: In both studies the active pharmaceutical ingredient was stored in grip sealed double bags within a PE/PP screw cap closed cylinder.

Question: For COCCC[C@H](NC(=O)[C@@H]1CCCN1C(=O)[C@@H](Cc1ccccc1)NC(=O)OCc1ccccc1)B(O)O [TRI 50c, Cbz-(R)-Phe-(S)-Pro-(R)-boroMpg-OH], which Amount [1] is on record?
Answer: Its Amount is 1000.0 µg/mL.

Question: Which “Effect on thrombin time (TT)” value (healthy male subjects) does the source give for COCCC[C@H](NC(=O)[C@@H]1CCCN1C(=O)[C@@H](Cc1ccccc1)NC(=O)OCc1ccccc1)B(O)O.[Na+] [TRI 50c sodium salt, Cbz-(R)-Phe-(S)-Pro-(R)-Mpg-B(OH)2 monosodium salt] here?
Answer: Its value is “rapid, dose-related increase”.

Question: And the “Anticoagulation during bypass and surgery” value [2]?
Answer: The value was “excellent anticoagulation”.

Question: What about the “Bleeding during bypass and surgery” value [2] of the same compound?
Answer: Its value is “little bleeding”.

Question: What about the APTT elevation (beagle dogs) of the same compound?
Answer: Its APTT elevation is 1.3 times.

Question: What about the Maximum concentration ([3]; control solution, about pH 7) of the same compound?
Answer: Its Maximum concentration is “about 20 mg/ml”.

Question: And the “Concentration of solution obtainable” value ([3]; pH of about 9.5, pH not controlled)?
Answer: Its value is “about 600 mg/ml”.

Question: Which results are given for COCCC[C@H](NC(=O)[C@@H]1CCCN1C(=O)[C@@H](Cc1ccccc1)NC(=O)OCc1ccccc1)B([O-])O.COCCC[C@H](NC(=O)[C@@H]1CCCN1C(=O)[C@@H](Cc1ccccc1)NC(=O)OCc1ccccc1)B([O-])O.[Ca+2] [TRI 50c calcium salt]?
Answer: Tri50c (w/w %, LOD corr.) ([4]; T = 0): (99.7) w/w %; Tri50c (w/w %, LOD corr.) ([4]; T = 1, 25° C./60% r.h.): (101.5) w/w %; Tri50c (w/w %, LOD corr.) ([4]; T = 1, 40° C./75% r.h.): (100.6) w/w %; Tri50c (w/w %, LOD corr.) ([4]; T = 1, −20° C.): (102.7)^x w/w %; Tri50c (w/w %, LOD corr.) ([4]; T = 3, 25° C./60% r.h.): (104.3) w/w %; Tri50c (w/w %, LOD corr.) ([4]; T = 3, 40° C./75% r.h.): (82.0) w/w %; Tri50c (w/w %, LOD corr.) ([4]; T = 3, −20° C.): (103.0)^x w/w %; TRI 50c (w/w) ([4]; T = 12 25° C./60% r.h.): 94.8 w/w
